Reference: article PMC5601625, “Defining a therapeutic window for kinase inhibitors in leukemia to avoid neutropenia” (Oncotarget, 2017)
Where two headings read alike, the source gives them in different places.

Legend:
Assay in all cases: Cell Titer Glo cell viability assay, 48 h
Type in all cases: cell-based, human
Conditions in all cases: read-out: IC50 of inhibitors on cell lines, m (mean)
K562 = test system: K562
Method: (§1) The activity of the kinase inhibitor collection against a panel of human leukemia cell lines was determined in cell viability assays run over 48 h using the Cell Titer Glo reagent.
(§2) Figure 1 Effects of kinase inhibition on the proliferation of leukemia cells A. Human leukemia cell lines were treated with duplicate serial dilutions of kinase inhibitors and the effect on cell viability was determined by Cell Titer Glo assay after 48 hours. […] HL-60 cells were treated with serial dilutions of mTor/PI3K B. and MEK C. inhibitors and the effect on cell viability was determined after 48 hours. Data shown is the mean ± SEM of 3 independent experiments.
(§3) Leukemia and lymphoma cell lines were grown in RPMI containing 10% FCS. […] Cell lines are routinely tested for mycoplasma and genotyped by short tandem repeating (STR) profiling to confirm identity.
(§4) Compounds were obtained from SynMedChem and dissolved at […] in DMSO. Serial 2-fold dilutions of each compound were prepared in DMSO using a liquid handling robot (Janus, Perkin Elmer). Each dilution (100nL) was transferred to duplicate tissue culture plates containing 50 μL of media containing 5 × 10^3 cells using a 384 well pin tool. Cells were incubated for 48 h and cell viability was determined using Cell Titer Glow reagents as described by the manufacturer (Promega). Data was acquired using a luminescent plate reader (Envision, Perkin Elmer) and analysed using Activity Base (IDBS, Guilford, UK) and visualised using Spotfire (TIBCO, Palo Alto, CA) as described previously. Each cell line was assayed in independent experiments on at least two occasions. […] Serial 2-fold dilutions of each compound were prepared in media containing 0.2% DMSO and 50 μl of each dilution was added to 10^4 cells in 50 μl of media. Cells were incubated for 48 h and cell viability was determined using Cell Titer Glow assay as described above.

U937 = test system: U937
Method: as §1, §2, §3, §4

EOL-1 = test system: EOL-1
Method: as §1, §2, §3, §4

JURKAT = test system: JURKAT
Method: as §1, §2, §3, §4

HEL.92.1.7 = test system: HEL.92.1.7
Method: as §1, §2, §3, §4

MV4;11 = test system: MV4;11
Method: as §1, §2, §3, §4

THP-1 = test system: THP-1
Method: as §1, §2, §3, §4

MEG-01 = test system: MEG-01
Method: as §1, §2, §3, §4

KU-812 = test system: KU-812
Method: as §1, §2, §3, §4

MOLT4 = test system: MOLT4
Method: as §1, §2, §3, §4

OCI-AML3 = test system: OCI-AML3
Method: as §1, §2, §3, §4

HL-60 = test system: HL-60
Method: as §1, §2, §3, §4

[1] = Homo sapiens, 48 h, mean of 2 independent experiments, 0 = less than 10 nM, cell line not given
[2] = Homo sapiens, U-937, 48 h, mean of 2 independent experiments, 0 = less than 10 nM, cell line not given
[3] = Homo sapiens, EOL1, 48 h, mean of 2 independent experiments, 0 = less than 10 nM, cell line not given
[4] = Homo sapiens, KU812, 48 h, mean of 2 independent experiments, 0 = less than 10 nM, cell line not given
[5] = Homo sapiens, MOLT-4, 48 h, mean of 2 independent experiments, 0 = less than 10 nM, cell line not given
[6] = Homo sapiens, OCI-AML-3, 48 h, mean of 2 independent experiments, 0 = less than 10 nM, cell line not given
[7] = 48 h, mean of 2 independent experiments, 0 = less than 10 nM, cell line not given

SMILES	IC50 (K562; [1]) [µM]	IC50 (U937; [2]) [µM]	IC50 (EOL-1; [3]) [µM]	IC50 (JURKAT; [1]) [µM]	IC50 (HEL.92.1.7; [1]) [µM]	IC50 (MV4;11; [1]) [µM]	IC50 (THP-1; [1]) [µM]	IC50 (MEG-01; [1]) [µM]	IC50 (KU-812; [4]) [µM]	IC50 (MOLT4; [5]) [µM]	IC50 (OCI-AML3; [6]) [µM]	IC50 (HL-60; [1]) [µM]	IC50 (K562; [7]) [µM]	IC50 (U937; [7]) [µM]	IC50 (EOL-1; [7]) [µM]	IC50 (JURKAT; [7]) [µM]	IC50 (HEL.92.1.7; [7]) [µM]	IC50 (MV4;11; [7]) [µM]	IC50 (THP-1; [7]) [µM]	IC50 (MEG-01; [7]) [µM]	also measured
CC(=O)Nc1nc(C)c(-c2ccc(Cl)c(S(=O)(=O)NCCO)c2)s1 [PIK-93]	–	–	–	–	–	–	–	–	–	–	–	–	–	–	–	–	–	–	–	–	IC50 (K562): 9.98 µM; IC50 (U937): 1.29 µM; IC50 (EOL-1): 0.39 µM; IC50 (JURKAT): 3.4 µM; IC50 (HEL.92.1.7): 8.14 µM; IC50 (MV4;11): 1.23 µM; IC50 (THP-1): 7.05 µM; IC50 (MEG-01): > 10 µM; IC50 (KU-812): > 10 µM; IC50 (MOLT4): 2.95 µM; IC50 (OCI-AML3): 1.8 µM; IC50 (HL-60): 2.07 µM
CCCS(=O)(=O)Nc1ccc(F)c(C(=O)c2c[nH]c3ncc(Cl)cc23)c1F [PLX4720]	> 10	8.5	4.2	9.68	> 10	5.6	> 10	0.84	0.45	> 10	> 10	> 10	–	–	–	–	–	–	–	–	–
CC(C)[C@H](CO)Nc1nc(Nc2ccc(C(=O)O)c(Cl)c2)c2ncn(C(C)C)c2n1 [Purvalanol B]	> 10	> 10	> 10	> 10	> 10	9.13	> 10	> 10	> 10	> 10	> 10	> 10	–	–	–	–	–	–	–	–	–
Cn1c(=O)c(Oc2ccc(F)cc2F)cc2cnc(NC3CCOCC3)nc21 [R1487]	–	–	–	–	–	–	–	–	–	–	–	–	> 10	> 10	1.41	> 10	> 10	> 10	> 10	> 10	IC50 (KU-812; [7]): > 10 µM; IC50 (MOLT4; [7]): > 10 µM; IC50 (OCI-AML3; [7]): > 10 µM; IC50 (HL-60; [7]): > 10 µM
CC1=C(C(=O)Nc2cc3cn[nH]c3cc2F)C(c2ccc(C(F)(F)F)cc2)CC(=O)N1 (stereo not drawn) [RHO-15]	–	–	–	–	–	–	–	–	–	–	–	–	7.75	9.64	0.19	> 10	> 10	7.22	> 10	5.14	IC50 (KU-812; [7]): 2.11 µM; IC50 (MOLT4; [7]): > 10 µM; IC50 (OCI-AML3; [7]): > 10 µM; IC50 (HL-60; [7]): > 10 µM
OCCC#Cc1nc(-c2ccc(F)cc2)c(-c2ccncc2)n1CCCc1ccccc1 [RWJ-67657]	> 10	8.05	3.59	> 10	> 10	8.28	> 10	> 10	5.77	> 10	> 10	> 10	–	–	–	–	–	–	–	–	–
Oc1ccc(-c2nc(-c3ccncc3)c(-c3ccc(F)cc3)[nH]2)cc1 [SB202190]	> 10	6.6	3.68	> 10	> 10	7	> 10	6.83	9.36	> 10	> 10	> 10	–	–	–	–	–	–	–	–	–
COc1nccc(-c2c(-c3ccc(F)cc3)ncn2C2CCNCC2)n1 [SB242235]	> 10	> 10	0.51	> 10	> 10	6.16	> 10	2.18	> 10	> 10	> 10	> 10	–	–	–	–	–	–	–	–	–
CN(C)CCOc1ccc(-c2nc(-c3ccncc3)c(-c3ccc4c(c3)CC/C4=N\O)[nH]2)cc1 [SB590885]	4.06	3.42	1.3	3.76	5.26	2.59	3.31	5.04	5.01	5.93	2.71	1.41	–	–	–	–	–	–	–	–	–
NC(=O)c1ccc2[nH]ccc2c1 [SD169]	–	–	–	–	–	–	–	–	–	–	–	–	> 10	> 10	5.12	> 10	> 10	> 10	> 10	> 10	IC50 (KU-812; [7]): > 10 µM; IC50 (MOLT4; [7]): > 10 µM; IC50 (OCI-AML3; [7]): > 10 µM; IC50 (HL-60; [7]): > 10 µM
O=C1NC(=O)/C(=C/c2cccc(C(F)(F)F)c2)S1 [SMI-4a]	–	–	–	–	–	–	–	–	–	–	–	–	2.74	> 10	0.13	> 10	> 10	9.71	> 10	5.78	IC50 (KU-812; [7]): 4.54 µM; IC50 (MOLT4; [7]): > 10 µM; IC50 (OCI-AML3; [7]): > 10 µM; IC50 (HL-60; [7]): > 10 µM
O=C(Nc1cccc(Cl)c1)Nc1ncc(CCNc2ncnc3ccsc23)s1 [SNS-314]	9.11	5.04	0.02	9.01	> 10	0.01	7.37	8.15	0.83	3.58	> 10	6.62	–	–	–	–	–	–	–	–	–
CN(C)CCOc1cc(-c2cn[nH]c2)ccc1NC(=O)C1COc2ccccc2O1 (stereo not drawn) [SR3677]	> 10	5.96	0.75	> 10	> 10	2.64	> 10	8.05	1.53	> 10	> 10	9.1	–	–	–	–	–	–	–	–	–
Cc1c[nH]c(/C=C2\C(=O)Nc3ccccc32)c1CCC(=O)O [SU-5402]	–	–	–	–	–	–	–	–	–	–	–	–	> 10	> 10	1.43	> 10	> 10	0.73	> 10	> 10	IC50 (KU-812; [7]): 9.28 µM; IC50 (MOLT4; [7]): > 10 µM; IC50 (OCI-AML3; [7]): > 10 µM; IC50 (HL-60; [7]): > 10 µM
